According to ChEMBL document CHEMBL1201862, “PubChem BioAssay data set” (2004):
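Each compound was tested at five concentrations against cells in 96-well plates for 48 hours. GI50 is the concentration that inhibits growth by half.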 Activity calls are given as the source filed them. Cut-off read from the data, not from the text of the source: active = GI50 up to about 1.1 µM and inactive = higher.

Key:
Experiment in all cases: NCI anticancer screen, dose series, 48 h
SK-MEL-5 = tested on: SK-MEL-5
UACC-257 = tested on: UACC-257
MOLT-4 = tested on: MOLT-4
U-251 = tested on: U-251
OVCAR-4 = tested on: OVCAR-4
DU-145 = tested on: DU-145
HCC 2998 = tested on: HCC 2998
UO-31 = tested on: UO-31
HL-60 = tested on: HL-60
MDA-N = tested on: MDA-N
SK-MEL-28 = tested on: SK-MEL-28
NCI-H460 = tested on: NCI-H460
SF-539 = tested on: SF-539
Hs-578T = tested on: Hs-578T
K562 = tested on: K562
UACC-62 = tested on: UACC-62
HOP-92 = tested on: HOP-92

Row | SMILES | GI50 (SK-MEL-5) | GI50 (UACC-257) | GI50 (MOLT-4) | GI50 (U-251) | GI50 (OVCAR-4) | GI50 (DU-145) | GI50 (HCC 2998) | GI50 (UO-31) | GI50 (HL-60) | GI50 (MDA-N) | GI50 (SK-MEL-28) | GI50 (NCI-H460) | GI50 (SF-539) | GI50 (Hs-578T) | GI50 (K562) | GI50 (UACC-62) | GI50 (HOP-92)
1 | NN(CC(=O)O)CC(=O)O | > 100 µM (inactive) | > 100 µM (inactive) | > 100 µM (inactive) | > 100 µM (inactive) | > 100 µM (inactive) | > 100 µM (inactive) | > 100 µM (inactive) | > 100 µM (inactive) | > 100 µM (inactive) | > 100 µM (inactive) | > 100 µM (inactive) | > 100 µM (inactive) | > 100 µM (inactive) | > 100 µM (inactive) | > 100 µM (inactive) | > 100 µM (inactive) | 
2 | Cn1c(-c2ccco2)ccc1-c1ccc(C=O)o1 | 64.1 µM (inactive) | > 100 µM (inactive) | 23.3 µM (inactive) | 39.1 µM (inactive) | 56.4 µM (inactive) | 52.4 µM (inactive) | > 100 µM (inactive) | 46.7 µM (inactive) | 21.5 µM (inactive) | 35.7 µM (inactive) | 48.6 µM (inactive) | > 100 µM (inactive) | 21.5 µM (inactive) |  | 37.5 µM (inactive) | 60.3 µM (inactive) | 31 µM (inactive)
3 | COc1cc2c(c(OC)c1OC)C(=O)[C@@H]1[C@H]2N1C(N)=O | 77.4 µM (inactive) | > 100 µM (inactive) | > 100 µM (inactive) | 47 µM (inactive) |  | 61.4 µM (inactive) | 68.4 µM (inactive) | > 100 µM (inactive) | > 100 µM (inactive) | 88.5 µM (inactive) | > 100 µM (inactive) | 98.2 µM (inactive) | > 100 µM (inactive) | 96.2 µM (inactive) | > 100 µM (inactive) | 22.1 µM (inactive) | 
4 | COc1cc(/C=C/C(=O)OCCc2ccccc2)ccc1O | 19.5 µM (inactive) | 18.1 µM (inactive) | 14.5 µM (inactive) | 16 µM (inactive) | 13 µM (inactive) | 16.6 µM (inactive) | 21 µM (inactive) | 13.9 µM (inactive) | 0.352 µM (active) | 19.1 µM (inactive) | 13.9 µM (inactive) | 18.6 µM (inactive) | 18.6 µM (inactive) | 25.6 µM (inactive) | 20.1 µM (inactive) | 12.7 µM (inactive) | 
5 | CCOC(=O)c1nnc2c(C(=O)OCC)c3ccccc3n2c1N | 5.52 µM (inactive) | 2.09 µM (inactive) | 4.41 µM (inactive) | 5.41 µM (inactive) | 5.2 µM (inactive) | 37.4 µM (inactive) | 34 µM (inactive) | 7.87 µM (inactive) | 2.15 µM (inactive) | 4.36 µM (inactive) | 5.85 µM (inactive) | 8.13 µM (inactive) | 5.66 µM (inactive) | 7.16 µM (inactive) | 11.2 µM (inactive) | 2.43 µM (inactive) | 
6 | Cc1nc(C(N)=S)sc1C(=O)C/C(=N/N)C(=O)Nc1ccc(Cl)cc1 | 90.2 µM (inactive) | > 100 µM (inactive) | 45.8 µM (inactive) | 99.5 µM (inactive) | 78.3 µM (inactive) |  | > 100 µM (inactive) | 70.6 µM (inactive) |  | > 100 µM (inactive) | > 100 µM (inactive) | 55.5 µM (inactive) | > 100 µM (inactive) | 39.1 µM (inactive) | 31.3 µM (inactive) | > 100 µM (inactive) | 
7 | CC(C)c1ccc2nc3ccc(C(=O)NCCN(C)C)cn3c(=O)c2c1 | 12.4 µM (inactive) | 12.1 µM (inactive) | 15 µM (inactive) | 19.9 µM (inactive) | 24.7 µM (inactive) | 34.7 µM (inactive) | 14.1 µM (inactive) | 14.6 µM (inactive) | 16.3 µM (inactive) | 16.4 µM (inactive) | 16.5 µM (inactive) | 17.6 µM (inactive) | 14.9 µM (inactive) | 15.2 µM (inactive) | 2.57 µM (inactive) | 16.6 µM (inactive) | 
